Patent publication US20100256173A1, “Method of Treating Cognitive Impairment” (priority 2009, published 2010)

Tests used:
[1] = test system: rodent models of learning and memory; assay: rodent models of learning and memory (age-impaired memory, chemical amnesic agents); type: in vivo; details: after both acute (single-dose) and chronic administration
Source text: The chemical name for ST101 is spiro(imidazo(1,2-a)pyridin-2(3H)-one-3,2′-indan).
(Yamaguchi Y., et al., J. Pharmacol. Exp. Ther. 317:1079-87 (2006); Ito Y., et al., J. Pharmacol. Exp. Ther. 320: 819-27 (2007)).

[2] = test system: nicotine-stimulated release of acetylcholine (ACh); assay: nicotine-stimulated release of acetylcholine
Source text: (§1) Experiments have shown that ST101 potentiates nicotine-stimulated release of acetylcholine (ACh), increases extracellular ACh concentrations in the cerebral cortex, and increases extracellular concentrations of both ACh and dopamine in the hippocampus.

[3] = test system: extracellular ACh and dopamine in cerebral cortex and hippocampus; assay: extracellular neurotransmitter concentrations in brain; type: in vivo
Source text: as §1

[4] = test system: rodent models of learning and memory; details: cited from earlier work
[5] = test system: Senescence Accelerated Mouse P8 (SAMP8); details: cited from earlier work
[6] = known from other studies; cited from earlier work

SMILES: O=C1N=C2C=CC=CN2C12Cc1ccccc1C2 [ST101, spiro(imidazo(1,2-a)pyridin-2(3H)-one-3,2′-indan)]
- pharmacological activity in rodent models of learning and memory relevant to AD [1]: has shown pharmacological activity
- nicotine-stimulated release of acetylcholine (ACh) [2]: potentiates
- extracellular ACh concentrations ([3]; cerebral cortex): increases
- extracellular concentration of ACh ([3]; hippocampus): increases
- extracellular concentration of dopamine ([3]; hippocampus): increases
- memory deficits induced by methamphetamine ([4]; chemical amnesic agent methamphetamine): attenuates
- memory deficits induced by MK-801 ([4]; glutamate receptor antagonist MK-801): attenuates
- age-impaired memory ([4]; in vivo): significantly improves
- memory deficits induced by scopolamine ([4]; muscarinic antagonist scopolamine): attenuates
- accumulation of Aβ-like deposits ([5]; SAMP8 mouse brain tissue): decreased
- learning and memory functions ([5]; SAMP8 mouse): improvement
- neuroprotective activity [6]: has neuroprotective activity
